This note sets out measurements from ChEMBL document CHEMBL1141983, “QSAR of estrogen receptor modulators: exploring selectivity requirements for ER(alpha) versus ER(beta) binding of tetrahydroisoquinoline derivatives using E-state and physicochemical parameters” (Bioorg Med Chem Lett, 2005).

Assay [1] has as its target T1, Estrogen receptor (Homo sapiens, UniProt P03372).
T1 sequence (P03372 whole entry): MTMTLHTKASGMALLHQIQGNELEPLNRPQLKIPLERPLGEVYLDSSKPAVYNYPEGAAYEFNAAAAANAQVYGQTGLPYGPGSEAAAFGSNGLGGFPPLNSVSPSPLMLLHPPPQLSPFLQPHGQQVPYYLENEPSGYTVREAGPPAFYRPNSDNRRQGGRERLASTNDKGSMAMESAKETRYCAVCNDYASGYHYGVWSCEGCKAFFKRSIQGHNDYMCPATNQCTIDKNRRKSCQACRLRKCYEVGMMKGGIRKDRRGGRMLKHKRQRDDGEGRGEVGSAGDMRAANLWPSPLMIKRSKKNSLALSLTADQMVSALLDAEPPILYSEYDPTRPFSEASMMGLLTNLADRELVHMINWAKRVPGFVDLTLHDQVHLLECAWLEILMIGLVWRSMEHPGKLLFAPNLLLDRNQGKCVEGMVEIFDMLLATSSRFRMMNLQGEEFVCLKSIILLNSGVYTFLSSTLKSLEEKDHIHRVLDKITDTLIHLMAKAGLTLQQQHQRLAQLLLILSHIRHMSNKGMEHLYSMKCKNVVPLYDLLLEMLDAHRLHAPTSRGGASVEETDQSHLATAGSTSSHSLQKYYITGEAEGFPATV
Description: (§1) Inhibition of transcriptional activation by human estrogen receptor alpha

In assay [2] the target is T2, Estrogen receptor beta (Homo sapiens, UniProt Q92731). Briefly: Inhibition of binding to human estrogen receptor beta.
In assay [3] the target is T1, Estrogen receptor. This is another data set of the same source.
Description: Inhibition of binding to human estrogen receptor alpha
Assay [4] has as its target T1, Estrogen receptor. This is another data set of the same source.
Description: as §1
The target of assay [5] is T2, Estrogen receptor beta. Briefly: Inhibition of transcriptional activation by human estrogen receptor beta.

T2 sequence (Q92731 whole entry): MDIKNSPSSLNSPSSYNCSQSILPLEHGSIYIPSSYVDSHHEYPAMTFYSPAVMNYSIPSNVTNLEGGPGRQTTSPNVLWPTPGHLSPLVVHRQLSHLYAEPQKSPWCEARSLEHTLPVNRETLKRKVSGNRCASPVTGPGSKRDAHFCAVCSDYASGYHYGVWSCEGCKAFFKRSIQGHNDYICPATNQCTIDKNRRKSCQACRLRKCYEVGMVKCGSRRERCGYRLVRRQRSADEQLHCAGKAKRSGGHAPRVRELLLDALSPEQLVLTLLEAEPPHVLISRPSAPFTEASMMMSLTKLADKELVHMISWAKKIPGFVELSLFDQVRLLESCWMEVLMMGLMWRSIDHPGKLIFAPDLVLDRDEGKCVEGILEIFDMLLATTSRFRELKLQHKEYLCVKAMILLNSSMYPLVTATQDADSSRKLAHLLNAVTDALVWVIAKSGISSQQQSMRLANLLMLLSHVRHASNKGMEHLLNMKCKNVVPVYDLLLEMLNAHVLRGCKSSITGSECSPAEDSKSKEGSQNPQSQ

`CC(C)c1ccc(N2CCc3cc(O)ccc3C2(C)c2ccc(OCCN3CCCCC3)cc2)cc1` (stereo not given): the “pIC50(uM)” value in assay [1] was determined as 2.284.

Regarding `CC1(c2ccc(OCCN3CCCCC3)cc2)c2ccc(O)cc2CCN1c1cccc(O)c1` (stereo not given), the “pIC50(uM)” value in assay [1] was 3.155.

Consider `CC1(c2ccc(OCCN3CCCCC3)cc2)c2ccc(O)cc2CCN1c1ccccc1` (stereo not given), for which the “pIC50(uM)” value in assay [1] is listed as 2.585.

In the case of `CC1(c2ccc(OCCN3CCCC3)cc2)c2ccc(O)cc2CCN1c1ccc(F)cc1` (stereo not given), in assay [1], the “pIC50(uM)” value is listed as 2.796.

In the case of `CC1(c2ccc(OCCN3CCCCC3)cc2)c2ccc(O)cc2CCN1c1ccc(Cl)cc1` (stereo not given), the “pIC50(uM)” value in assay [1] is reported as 2.509.

Turning to `CC1(c2ccc(OCCN3CCCCC3)cc2)c2ccc(O)cc2CCN1c1cccc(Cl)c1` (stereo not given), the “pIC50(uM)” value in assay [1] was 2.347.

Regarding `CC1(c2ccc(OCCN3CCCC3)cc2)c2ccc(O)cc2CCN1c1cccc(F)c1` (stereo not given), in assay [1], the “pIC50(uM)” value is reported as 2.523.

Turning to `CC1(c2ccc(OCCN3CCCC3)cc2)c2ccc(O)cc2CCN1c1cccc(Cl)c1` (stereo not given), in assay [1], the “pIC50(uM)” value is given as 2.538.

As for `CC1(c2ccc(OCCN3CCCCCC3)cc2)c2ccc(O)cc2CCN1c1ccccc1` (stereo not given), the “pIC50(uM)” value in assay [1] is 2.824.

As a reminder, the IC50 is the concentration that gives 50% inhibition. Take `CN(C)c1cccc(N2CCc3cc(O)ccc3C2c2ccc(OCCN3CCCCC3)cc2)c1` (stereo not given): the IC50 in assay [2] was 3.11 µM; in assay [3], 0.071 µM; in assay [4], 0.0198 µM; in assay [5] it was 2.18 µM.

Regarding `CC(C)c1ccc(N2CCc3cc(O)ccc3C2(C)c2ccc(OCCN3CCCC3)cc2)cc1` (stereo not given), the “pIC50(uM)” value in assay [1] is reported as 2.585.

In the case of `CC1(c2ccc(OCCN3CCCC3)cc2)c2ccc(O)cc2CCN1c1ccccc1` (stereo not given), the “pIC50(uM)” value in assay [1] is 2.745.
